The source of these data is ChEMBL document CHEMBL1137188, “Substituted 6-phenyl-pyridin-2-ylamines: selective and potent inhibitors of neuronal nitric oxide synthase” (Bioorg Med Chem Lett, 2004).

The target in one experiment is Nitric oxide synthase 1 (Homo sapiens, UniProt P29475). Kind of experiment: Inhibitory activity against neuronal nitric oxide synthase in human.
For the next experiment, the target named is T1, Nitric oxide synthase 3 (Homo sapiens, UniProt P29474).
T1 sequence (P29474 whole entry): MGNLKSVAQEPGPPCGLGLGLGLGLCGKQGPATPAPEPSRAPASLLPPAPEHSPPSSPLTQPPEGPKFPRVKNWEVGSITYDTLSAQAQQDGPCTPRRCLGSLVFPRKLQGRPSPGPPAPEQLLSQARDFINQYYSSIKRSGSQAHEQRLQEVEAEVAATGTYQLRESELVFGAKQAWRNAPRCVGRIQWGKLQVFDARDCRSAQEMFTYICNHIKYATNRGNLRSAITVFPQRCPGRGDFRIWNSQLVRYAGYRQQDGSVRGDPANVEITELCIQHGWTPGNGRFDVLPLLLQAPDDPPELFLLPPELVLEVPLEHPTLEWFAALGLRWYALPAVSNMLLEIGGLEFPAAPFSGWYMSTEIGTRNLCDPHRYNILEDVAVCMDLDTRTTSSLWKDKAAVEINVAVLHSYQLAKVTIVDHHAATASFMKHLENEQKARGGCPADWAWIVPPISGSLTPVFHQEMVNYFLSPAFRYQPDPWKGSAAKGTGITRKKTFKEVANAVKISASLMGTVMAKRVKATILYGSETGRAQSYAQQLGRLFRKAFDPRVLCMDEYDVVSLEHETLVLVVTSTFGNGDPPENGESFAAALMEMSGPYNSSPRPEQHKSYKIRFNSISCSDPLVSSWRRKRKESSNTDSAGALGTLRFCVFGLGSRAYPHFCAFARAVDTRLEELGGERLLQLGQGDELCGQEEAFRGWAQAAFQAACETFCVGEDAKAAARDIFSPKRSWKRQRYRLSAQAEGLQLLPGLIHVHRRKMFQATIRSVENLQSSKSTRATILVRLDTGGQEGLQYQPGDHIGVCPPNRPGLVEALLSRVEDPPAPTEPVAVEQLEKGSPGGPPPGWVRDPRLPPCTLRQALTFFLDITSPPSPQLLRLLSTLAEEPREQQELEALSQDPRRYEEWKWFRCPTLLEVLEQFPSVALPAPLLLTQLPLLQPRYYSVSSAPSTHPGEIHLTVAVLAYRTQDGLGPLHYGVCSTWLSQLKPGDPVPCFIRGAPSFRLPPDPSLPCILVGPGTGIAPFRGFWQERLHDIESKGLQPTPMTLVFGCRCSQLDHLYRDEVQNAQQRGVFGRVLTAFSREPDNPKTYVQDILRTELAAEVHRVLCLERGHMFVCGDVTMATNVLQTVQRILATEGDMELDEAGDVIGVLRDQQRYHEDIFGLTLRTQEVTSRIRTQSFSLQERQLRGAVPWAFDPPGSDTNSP
The experiment can be described thus: Inhibitory activity against endothelial nitric oxide synthase in human.

Nitric oxide synthase 1, sequence (P29475 whole entry): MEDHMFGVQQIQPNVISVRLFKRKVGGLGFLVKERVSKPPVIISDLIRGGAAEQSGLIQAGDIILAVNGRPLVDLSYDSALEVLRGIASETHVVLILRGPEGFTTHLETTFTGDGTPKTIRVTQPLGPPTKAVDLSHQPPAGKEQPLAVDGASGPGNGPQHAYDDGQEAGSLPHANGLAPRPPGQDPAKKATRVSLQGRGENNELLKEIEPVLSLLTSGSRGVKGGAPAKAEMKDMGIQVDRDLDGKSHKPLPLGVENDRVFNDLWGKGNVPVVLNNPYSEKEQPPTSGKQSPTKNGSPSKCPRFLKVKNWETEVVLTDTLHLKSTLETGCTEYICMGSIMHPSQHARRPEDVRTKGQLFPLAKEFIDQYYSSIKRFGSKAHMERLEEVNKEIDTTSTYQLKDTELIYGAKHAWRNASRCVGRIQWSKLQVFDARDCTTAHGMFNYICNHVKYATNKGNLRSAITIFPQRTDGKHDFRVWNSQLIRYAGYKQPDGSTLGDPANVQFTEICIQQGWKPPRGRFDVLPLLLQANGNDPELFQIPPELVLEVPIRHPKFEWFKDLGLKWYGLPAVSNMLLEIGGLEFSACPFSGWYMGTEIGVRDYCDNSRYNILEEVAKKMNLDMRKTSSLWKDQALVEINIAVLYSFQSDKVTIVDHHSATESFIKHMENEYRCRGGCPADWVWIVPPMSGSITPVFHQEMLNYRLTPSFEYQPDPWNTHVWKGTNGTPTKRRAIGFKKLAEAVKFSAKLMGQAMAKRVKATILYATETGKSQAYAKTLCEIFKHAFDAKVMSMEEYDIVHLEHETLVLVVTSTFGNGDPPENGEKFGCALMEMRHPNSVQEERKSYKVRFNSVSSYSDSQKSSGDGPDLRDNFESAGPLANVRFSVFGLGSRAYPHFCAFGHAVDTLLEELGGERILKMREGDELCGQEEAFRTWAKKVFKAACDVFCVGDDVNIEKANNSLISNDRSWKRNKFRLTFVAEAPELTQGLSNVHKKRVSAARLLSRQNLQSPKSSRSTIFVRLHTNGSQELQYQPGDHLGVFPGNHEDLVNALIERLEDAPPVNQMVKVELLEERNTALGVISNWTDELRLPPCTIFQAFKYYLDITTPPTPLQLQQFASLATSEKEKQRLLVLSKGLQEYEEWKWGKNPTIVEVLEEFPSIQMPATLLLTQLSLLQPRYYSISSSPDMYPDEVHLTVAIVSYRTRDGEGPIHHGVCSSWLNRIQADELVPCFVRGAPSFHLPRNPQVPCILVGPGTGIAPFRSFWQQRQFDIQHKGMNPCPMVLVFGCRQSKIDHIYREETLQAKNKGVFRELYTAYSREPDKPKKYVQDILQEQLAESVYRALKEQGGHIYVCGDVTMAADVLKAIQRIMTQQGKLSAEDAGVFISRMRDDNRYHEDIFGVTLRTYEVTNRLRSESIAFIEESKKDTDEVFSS

For the molecule `CCc1cc(-c2cccc(N)n2)c(OC)cc1OCCN(C)C`, the figures for the IC50 on Nitric oxide synthase 1 and on Nitric oxide synthase 3 were 58 nM and 3710 nM, respectively. The like results for `COc1cc(-c2cccc(N)n2)c(OC)cc1CCN(C)C` were, in that order, 235 nM and above 32000 nM. The corresponding values for `COc1cc(-c2cccc(N)n2)c(OC)cc1CCCN(C)C` are 200 nM and above 32000 nM. The like results for `COc1cc(-c2cccc(N)n2)c(OC)cc1OCCN(C)C` were, in that order, 112 nM and 21900 nM. In the case of `CCc1cc(-c2cccc(N)n2)c(OC)cc1CCCN(C)C`, the IC50 (as a rule, the concentration that gives 50% inhibition) against Nitric oxide synthase 1 is 75 nM; on Nitric oxide synthase 3 it was above 7700 nM.

As to `COc1cc(-c2cccc(N)n2)c(OC)cc1CN(C)C`, the half-inhibitory concentration (IC50) on Nitric oxide synthase 1 was 810 nM; on Nitric oxide synthase 3, above 32000 nM. The like results for `CCc1cc(-c2cccc(N)n2)c(OC)cc1CCN(C)C` were, in that order, 75 nM and 16500 nM. The molecule `CCc1cc(-c2cccc(N)n2)c(OC)cc1CN(C)C` displayed a 50% inhibitory concentration (IC50) at Nitric oxide synthase 3 of 8830 nM.
